From the supplement of paper PMC5908809

What was measured:
[1] = tested on: normal NK cells expanded with K562-aAPC; assay: percent inhibition of viability; higher = more inhibition; details: 72 h, IL-2 2.5 ng/mL
Method: (§1)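 Drug sensitivity and resistance testing on K562-aAPC-expanded normal NK cells: 5 concentrations (10-fold steps over a 10,000-fold range), 72 h at 37 °C, viability by CellTiter-Glo normalised to DMSO and benzethonium chloride controls; DSS from the fitted curve.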

DERL-7 (IL-2 2.5 ng/mL) [2] = assay: as above; details: 72 h
IMC-1 (IL-2 20 ng/mL) [3] = assay: as above; details: 72 h
KAI3 (IL-2 2.5 ng/mL) [4] = assay: as above; details: 72 h
KHYG-1 (IL-2 2.5 ng/mL) [5] = assay: as above; details: 72 h
NK-92 (IL-2 2.5 ng/mL) [6] = assay: as above; details: 72 h
NK-YS (IL-2 2.5 ng/mL) [7] = assay: as above; details: 72 h
NKL (IL-2 2.5 ng/mL) [8] = assay: as above; details: 72 h
SNK-6 (IL-2 2.5 ng/mL) [9] = assay: as above; details: 72 h
YT (IL-2 2.5 ng/mL) [10] = assay: as above; details: 72 h
[11] = tested on: normal primary NK cells, pool 1 (3 donors) (IL-2 2.5 ng/mL); assay: as above; details: 72 h
[12] = tested on: normal primary NK cells, pool 1 (3 donors), resting (IL-2 0 ng/mL); assay: as above; details: 72 h
[13] = tested on: normal primary NK cells, pool 2 (3 donors) (IL-2 2.5 ng/mL); assay: as above; details: 72 h
[14] = tested on: normal primary NK cells, pool 3 (3 donors) (IL-2 2.5 ng/mL); assay: as above; details: 72 h
[15] = tested on: normal NK cells expanded with K562-aAPC; assay: drug sensitivity score (DSS) (DSS units); higher = more sensitive; extreme values may be limits of the assay; details: 72 h; IL-2 2.5 ng/mL
Method: as §1

DERL-7 (IL-2 2.5 ng/mL) [16] = assay: as above; details: 72 h
IMC-1 (IL-2 20 ng/mL) [17] = assay: as above; details: 72 h
KAI3 (IL-2 2.5 ng/mL) [18] = assay: as above; details: 72 h
KHYG-1 (IL-2 2.5 ng/mL) [19] = assay: as above; details: 72 h
NK-92 (IL-2 2.5 ng/mL) [20] = assay: as above; details: 72 h
NK-YS (IL-2 2.5 ng/mL) [21] = assay: as above; details: 72 h
NKL (IL-2 2.5 ng/mL) [22] = assay: as above; details: 72 h
SNK-6 (IL-2 2.5 ng/mL) [23] = assay: as above; details: 72 h
YT (IL-2 2.5 ng/mL) [24] = assay: as above; details: 72 h
[25] = tested on: normal primary NK cells, pool 1 (3 donors) (IL-2 2.5 ng/mL); assay: as above; details: 72 h
[26] = tested on: normal primary NK cells, pool 1 (3 donors), resting (IL-2 0 ng/mL); assay: as above; details: 72 h
[27] = tested on: normal primary NK cells, pool 2 (3 donors) (IL-2 2.5 ng/mL); assay: as above; details: 72 h
[28] = tested on: normal primary NK cells, pool 3 (3 donors) (IL-2 2.5 ng/mL); assay: as above; details: 72 h

COc1cc2c(N3CCN(C(=O)Nc4ccc(OC(C)C)cc4)CC3)ncnc2cc1OCCCN1CCCCC1 [Tandutinib] (max concentration tested 1000 nM)
percent inhibition of viability [%]
Details	0.1 nM	1 nM	10 nM	100 nM	1000 nM
DERL-7 (IL-2 2.5 ng/mL) [2]	6.14	3.13	1.63	2.2	-0.71
IMC-1 (IL-2 20 ng/mL) [3]	-5.53	-2.46	0.78	2.8	18.4
KAI3 (IL-2 2.5 ng/mL) [4]	-0.83	3.14	3.31	3.31	17.9
KHYG-1 (IL-2 2.5 ng/mL) [5]	3.28	0.15	6.9	6.14	16.8
NK-92 (IL-2 2.5 ng/mL) [6]	-7.68	0.56	17.9	8.5	19.1
NK-YS (IL-2 2.5 ng/mL) [7]	2.01	2.91	6.63	1.61	13.4
NKL (IL-2 2.5 ng/mL) [8]	-15.4	-9.75	-9.72	-2.92	7.53
SNK-6 (IL-2 2.5 ng/mL) [9]	2.47	-9.17	1.36	-17.2	-2.8
YT (IL-2 2.5 ng/mL) [10]	1.06	0.08	6.39	-0.96	9.65
[1]	0.5	4.31	2.45	1.29	8.72
[11]	3.36	-11.3	-7.24	-22	-12.1
[12]	6.87	-8.83	-1.76	-7.72	-7.9
[13]	-9.1	2.32	-0.09	-2.34	4.26
[14]	-11.8	-8.39	-1.84	-4.05	-10.6

Details	drug sensitivity score
DERL-7 (IL-2 2.5 ng/mL) [16]	0
IMC-1 (IL-2 20 ng/mL) [17]	0.83
KAI3 (IL-2 2.5 ng/mL) [18]	0.84
KHYG-1 (IL-2 2.5 ng/mL) [19]	0.42
NK-92 (IL-2 2.5 ng/mL) [20]	4.33
NK-YS (IL-2 2.5 ng/mL) [21]	0
NKL (IL-2 2.5 ng/mL) [22]	0
SNK-6 (IL-2 2.5 ng/mL) [23]	0
YT (IL-2 2.5 ng/mL) [24]	0
[15]	0
[25]	0
[26]	0
[27]	0
[28]	0

CN(C)/N=N/c1[nH]cnc1C(N)=O [Dacarbazine] (max concentration tested 10000 nM)
percent inhibition of viability [%]
Details	1 nM	10 nM	100 nM	1000 nM	10000 nM
DERL-7 (IL-2 2.5 ng/mL) [2]	-2.46	-7.71	-9.81	-6.85	-5.73
IMC-1 (IL-2 20 ng/mL) [3]	-2.15	-3.53	1.36	1.13	5.24
KAI3 (IL-2 2.5 ng/mL) [4]	-5.96	-7.58	-5.99	-9.63	10.8
KHYG-1 (IL-2 2.5 ng/mL) [5]	-1.18	-4.93	-1.85	0.07	39.6
NK-92 (IL-2 2.5 ng/mL) [6]	-11.1	-14.5	-3.48	-12.7	-1.95
NK-YS (IL-2 2.5 ng/mL) [7]	-2.92	-5.5	2.66	4.39	31.8
NKL (IL-2 2.5 ng/mL) [8]	-15.6	-10.8	-1.7	0.09	-2.93
SNK-6 (IL-2 2.5 ng/mL) [9]	16.4	16	31.9	30.4	22.6
YT (IL-2 2.5 ng/mL) [10]	-0.72	-1.38	3.7	1.57	59.6
[1]	-6.74	-2.31	-4.77	1.92	10.3
[11]	1.02	-5.15	0.2	-11.5	-4.15
[12]	-7.07	-16.7	-8.98	-35.2	-22.9
[13]	-10.3	-8.69	-2.46	-11.8	-2.6
[14]	-14.1	-10.7	-2.39	-8.2	3.49

Details	drug sensitivity score
DERL-7 (IL-2 2.5 ng/mL) [16]	0
IMC-1 (IL-2 20 ng/mL) [17]	0
KAI3 (IL-2 2.5 ng/mL) [18]	0
KHYG-1 (IL-2 2.5 ng/mL) [19]	1.97
NK-92 (IL-2 2.5 ng/mL) [20]	0
NK-YS (IL-2 2.5 ng/mL) [21]	2.15
NKL (IL-2 2.5 ng/mL) [22]	0
SNK-6 (IL-2 2.5 ng/mL) [23]	10.7
YT (IL-2 2.5 ng/mL) [24]	3.43
[15]	0
[25]	0
[26]	0
[27]	0
[28]	0

CC(C)(C#N)c1cc(Cn2cncn2)cc(C(C)(C)C#N)c1 [Anastrozole] (max concentration tested 10000 nM)
percent inhibition of viability [%]
Details	1 nM	10 nM	100 nM	1000 nM	10000 nM
DERL-7 (IL-2 2.5 ng/mL) [2]	1.86	1.72	1.5	4.62	1.85
IMC-1 (IL-2 20 ng/mL) [3]	-2.19	-4.02	-0.27	-6.87	-2.18
KAI3 (IL-2 2.5 ng/mL) [4]	4.34	-3.23	4.57	-3.97	4.8
KHYG-1 (IL-2 2.5 ng/mL) [5]	-3.64	-8.98	-2.57	-9.89	-0.45
NK-92 (IL-2 2.5 ng/mL) [6]	2.62	-14.9	-4.14	-11.2	0.08
NK-YS (IL-2 2.5 ng/mL) [7]	-0.21	-1.51	-0.63	-2.69	-1.18
NKL (IL-2 2.5 ng/mL) [8]	-3.4	-8.92	1.02	-7.99	1.34
SNK-6 (IL-2 2.5 ng/mL) [9]	-1.06	23.5	22.5	-18.6	2.15
YT (IL-2 2.5 ng/mL) [10]	6.09	-6.8	6.6	-5.12	8.27
[1]	-3.07	-7.42	-9.56	-10	-14.1
[11]	-5.66	-8.98	-13.5	1.93	-12.4
[12]	0.43	-12.5	-9.34	-4.56	1.51
[13]	-14.1	-1.97	-6.31	-1.14	-6.99
[14]	-11.2	-0.62	-6.71	-6.71	-5.25

Details	drug sensitivity score
DERL-7 (IL-2 2.5 ng/mL) [16]	0
IMC-1 (IL-2 20 ng/mL) [17]	0
KAI3 (IL-2 2.5 ng/mL) [18]	0
KHYG-1 (IL-2 2.5 ng/mL) [19]	0
NK-92 (IL-2 2.5 ng/mL) [20]	0
NK-YS (IL-2 2.5 ng/mL) [21]	0
NKL (IL-2 2.5 ng/mL) [22]	0
SNK-6 (IL-2 2.5 ng/mL) [23]	0
YT (IL-2 2.5 ng/mL) [24]	0
[15]	0
[25]	0
[26]	0
[27]	0
[28]	0
